{
  "source": "patent US12303505B2",
  "about": "“Tumor-treating pharmaceutical composition” (Eisai R&D Management Co., Ltd., priority 2017, dated 2025)",
  "assay_type_in_all_cases": "in vivo",
  "key": {"[1]": {"test_system": "Human colorectal cancer line Colo-205 cells", "experiment": "Antitumor effect in human colorectal cancer line Colo-205 transplantation model, nude mice", "procedure": "Human colorectal cancer line Colo-205 cells (ATCC) were cultured by using RPMI1640 medium (Wako Pure Chemical Industries, Ltd.) containing 10% FBS in a 5% CO2 incubator under conditions of 37° C. When the cells became an approximately 80% confluent state, the cells were recovered by using trypsin-EDTA. A suspension was prepared by adding Hank's balanced salt solution to the cells so as to be 5.0×10^7 cells/mL. 0.1 mL of the obtained cell suspension was subcutaneously transplanted to the sides of the bodies of five nude mice (CAnN.Cg-Foxn1^nu/CrlCrlj, Charles River Laboratories Japan, Inc.) each of a control group, an E7386 50 mg/kg alone administration group, a lenvatinib mesylate 10 mg/kg alone administration group, and a combined administration group of 50 mg/kg E7386 and 10 mg/kg lenvatinib mesylate. From 8 days after the transplantation, E7386 (50 mg/kg, q.d., 11 days, oral administration) and lenvatinib mesylate (10 mg/kg, q.d., 11 days, oral administration) were administered alone or in combination to the alone administration group or the combined administration group. For the administration, E73 86 was dissolved in 0.1 mol/L hydrochloric acid, and lenvatinib mesylate was dissolved in 3 mmol/L hydrochloric acid. Any drug was not administered to the control group.\nWhen the start day of administration was defined as day 1, the major axis and minor axis of tumor developed in each mouse were then measured at day 4, day 8, and day 12 by using Digimatic Caliper (Mitutoyo Corp.).\n(§1) The tumor volume and the relative tumor volume (RTV) were calculated according to the following expressions. Tumor volume (mm^3)=Tumor major axis (mm)×Tumor minor axis^2 (mm^2)/2 Relative tumor volume (RTV)=Tumor volume at the measurement day/Tumor volume at the start day of administration"}, "[2]": {"test_system": "human melanoma cell line SEKI", "experiment": "Antitumor effect in human melanoma cell line SEKI transplantation model, nude mice", "procedure": "A human melanoma cell line SEKI (JCRB Cell Bank) was cultured by using RPMI1640 medium (Sigma-Aldrich Co. LLC) containing 10% FBS in a 5% CO2 incubator under conditions of 37° C. When the cells became an approximately 80% confluent state, the cells were recovered by using trypsin-EDTA. A suspension was prepared by adding Hank's balanced salt solution containing 50% Matrigel to the cells so as to be 5.0×10^7 cells/mL. 0.1 mL of the obtained cell suspension was subcutaneously transplanted to the sides of the bodies of six nude mice (CAnN.Cg-Foxn1^nu/CrlCrlj, Charles River Laboratories Japan, Inc.) each of a control group, an E7386 12.5 or 25 mg/kg alone administration group, a lenvatinib mesylate 10 mg/kg alone administration group, and a combined administration group of 12.5 or 25 mg/kg E7386 and 10 mg/kg lenvatinib mesylate. From 13 days after the transplantation, E7386 (12.5 or 25 mg/kg, b.d.s., 14 days, oral administration) and lenvatinib mesylate (10 mg/kg, q.d., 14 days, oral administration) were administered alone or in combination to the alone administration group or the combined administration group. For the administration, E7386 was dissolved in 0.1 mol/L hydrochloric acid, and lenvatinib mesylate was dissolved in 3 mmol/L hydrochloric acid. 0.1 mol/L hydrochloric acid (b.d.s., 14 days) was administered to the control group.\nWhen the start day of administration was defined as day 1, the major axis and minor axis of tumor developed in each mouse were then measured at day 4, day 8, day 11, and day 15 by using Digimatic Caliper (Mitutoyo Corp.).\nas §1"}, "[3]": {"test_system": "Mouse breast cancer 4T1 cells", "experiment": "Antitumor effect in mouse breast cancer 4T1 orthotopic transplantation model", "procedure": "Mouse breast cancer 4T1 cells (ATCC) were cultured by using RPMI1640 medium (Sigma-Aldrich Co. LLC) containing 10% FBS in a 5% CO2 incubator under conditions of 37° C. When the cells became an approximately 80% confluent state, the cells were recovered by using trypsin-EDTA. A suspension was prepared by adding Hank's balanced salt solution so as to be 1.0×10^7 cells/mL. 0.1 mL of the obtained cell suspension was transplanted to the right third mammary gland fat pads of five mice ([…], Charles River Laboratories Japan, Inc.) each of a control group, an E7386 25 mg/kg alone administration group, a lenvatinib mesylate 10 mg/kg alone administration group, and a combined administration group of 25 mg/kg E7386 and 10 mg/kg lenvatinib mesylate. From 9 days after the transplantation, E7386 (25 mg/kg, b.d.s., 14 days, oral administration) and lenvatinib mesylate (10 mg/kg, q.d., 14 days, oral administration) were administered alone or in combination to the alone administration group or the combined administration group. For the administration, E7386 was dissolved in 0.1 mol/L hydrochloric acid, and lenvatinib mesylate was dissolved in 3 mmol/L hydrochloric acid. Any drug was not administered to the control group.\nWhen the start day of administration was defined as day 1, the major axis and minor axis of tumor developed in each mouse were then measured at day 3, day 6, day 9, and day 14 by using Digimatic Caliper (Mitutoyo Corp.).\nas §1"}, "[4]": {"conditions": "Day 4, lenvatinib mesylate 10 mg/kg q.d. oral alone"}, "[5]": {"conditions": "Day 8, lenvatinib mesylate 10 mg/kg q.d. oral alone"}},
  "note": "Structures can show the parent of a compound that is named as a salt.",
  "data": [
    {"smiles": "COc1cc2nccc(Oc3ccc(NC(=O)NC4CC4)c(Cl)c3)c2cc1C(N)=O", "note": "[Lenvatinib mesylate, 4-(3-chloro-4-(cyclopropylaminocarbonyl)aminophenoxy)-7-methoxy-6-quinolinecarboxamide, reference compound]", "values": [
      {"measurement": "Relative tumor volume (RTV), mean±SD", "setting": "[1]; [4]", "value": "1.41 ± 0.30"},
      {"measurement": "Relative tumor volume (RTV), mean±SD", "setting": "[1]; [5]", "value": "1.75 ± 0.13"},
      {"measurement": "Relative tumor volume (RTV), mean±SD", "setting": "[1]; Day 12, lenvatinib mesylate 10 mg/kg q.d. oral alone", "value": "1.94 ± 0.31"},
      {"measurement": "Relative tumor volume (RTV), mean±SD", "setting": "[2]; [4]", "value": "1.60 ± 0.22"},
      {"measurement": "Relative tumor volume (RTV), mean±SD", "setting": "[2]; [5]", "value": "2.66 ± 0.46"},
      {"measurement": "Relative tumor volume (RTV), mean±SD", "setting": "[2]; Day 11, lenvatinib mesylate 10 mg/kg q.d. oral alone", "value": "3.81 ± 0.80"},
      {"measurement": "Relative tumor volume (RTV), mean±SD", "setting": "[2]; Day 15, lenvatinib mesylate 10 mg/kg q.d. oral alone", "value": "4.67 ± 1.19"},
      {"measurement": "Relative tumor volume (RTV), mean±SD", "setting": "[3]; Day 3, lenvatinib mesylate 10 mg/kg q.d. oral alone", "value": "1.36 ± 0.28"},
      {"measurement": "Relative tumor volume (RTV), mean±SD", "setting": "[3]; Day 6, lenvatinib mesylate 10 mg/kg q.d. oral alone", "value": "1.46 ± 0.28"},
      {"measurement": "Relative tumor volume (RTV), mean±SD", "setting": "[3]; Day 9, lenvatinib mesylate 10 mg/kg q.d. oral alone", "value": "1.75 ± 0.41"},
      {"measurement": "Relative tumor volume (RTV), mean±SD", "setting": "[3]; Day 14, lenvatinib mesylate 10 mg/kg q.d. oral alone", "value": "1.99 ± 0.26"}
    ]},
    {"smiles": "C=CCN1CC(=O)N2[C@@H](Cc3ccc(O)cc3F)C(=O)N(Cc3cccc(N4CC(N5CCN(CC)CC5)C4)n3)C[C@@H]2N1C(=O)NCc1ccccc1", "note": "[E7386, (6S,9aS)—N-Benzyl-8-({6-[3-(4-ethylpiperazin-1-yl)azetidin-1-yl]pyridin-2-yl}methyl)-6-(2-fluoro-4-hydroxybenzyl)-4,7-dioxo-2-(prop-2-en-1-yl)hexahydro-2H-pyrazino[2,1-c][1,2,4]triazine-1(6H)-carboxamide]", "values": [
      {"measurement": "Relative tumor volume (RTV), mean±SD", "setting": "[1]; Day 4, E7386 50 mg/kg q.d. oral alone", "value": "1.98 ± 0.24"},
      {"measurement": "Relative tumor volume (RTV), mean±SD", "setting": "[1]; Day 8, E7386 50 mg/kg q.d. oral alone", "value": "3.87 ± 0.74"},
      {"measurement": "Relative tumor volume (RTV), mean±SD", "setting": "[1]; Day 12, E7386 50 mg/kg q.d. oral alone", "value": "4.94 ± 1.41"},
      {"measurement": "Relative tumor volume (RTV), mean±SD", "setting": "[2]; Day 4, E7386 12.5 mg/kg b.d.s. oral alone", "value": "1.65 ± 0.22"},
      {"measurement": "Relative tumor volume (RTV), mean±SD", "setting": "[2]; Day 4, E7386 25 mg/kg b.d.s. oral alone", "value": "1.56 ± 0.21"},
      {"measurement": "Relative tumor volume (RTV), mean±SD", "setting": "[2]; Day 8, E7386 12.5 mg/kg b.d.s. oral alone", "value": "3.02 ± 0.31"},
      {"measurement": "Relative tumor volume (RTV), mean±SD", "setting": "[2]; Day 8, E7386 25 mg/kg b.d.s. oral alone", "value": "2.94 ± 0.22"},
      {"measurement": "Relative tumor volume (RTV), mean±SD", "setting": "[2]; Day 11, E7386 12.5 mg/kg b.d.s. oral alone", "value": "4.19 ± 0.80"},
      {"measurement": "Relative tumor volume (RTV), mean±SD", "setting": "[2]; Day 11, E7386 25 mg/kg b.d.s. oral alone", "value": "4.35 ± 0.36"},
      {"measurement": "Relative tumor volume (RTV), mean±SD", "setting": "[2]; Day 15, E7386 12.5 mg/kg b.d.s. oral alone", "value": "5.53 ± 1.21"},
      {"measurement": "Relative tumor volume (RTV), mean±SD", "setting": "[2]; Day 15, E7386 25 mg/kg b.d.s. oral alone", "value": "5.90 ± 1.34"},
      {"measurement": "Relative tumor volume (RTV), mean±SD", "setting": "[3]; Day 3, E7386 25 mg/kg b.d.s. oral alone", "value": "1.59 ± 0.38"},
      {"measurement": "Relative tumor volume (RTV), mean±SD", "setting": "[3]; Day 6, E7386 25 mg/kg b.d.s. oral alone", "value": "1.75 ± 0.42"},
      {"measurement": "Relative tumor volume (RTV), mean±SD", "setting": "[3]; Day 9, E7386 25 mg/kg b.d.s. oral alone", "value": "2.17 ± 0.76"},
      {"measurement": "Relative tumor volume (RTV), mean±SD", "setting": "[3]; Day 14, E7386 25 mg/kg b.d.s. oral alone", "value": "2.32 ± 0.68"}
    ]}
  ]
}
